Test results from patent publication US20240116985A1, “STAPLED PEPTIDES AND METHODS THEREOF” (priority 2020, published 2024).
Values after ≈ are worked out from the molar mass of the structure shown. Like-named read-outs stand apart in the source and are kept apart here.

Tests used:
CHI Log D procedure = format: physicochemical
[1] = biological target: T1, full-length beta-Catenin (Uniprot ID P35222) (Homo sapiens, UniProt P35222); assay: Fluorescence polarization IC50 (beta-catenin / 5FAM-TCF4 10-53 competition); format: binding
T1 construct: 10 nM full-length beta-Catenin (Uniprot ID P35222)
T1 sequence (P35222 1-781): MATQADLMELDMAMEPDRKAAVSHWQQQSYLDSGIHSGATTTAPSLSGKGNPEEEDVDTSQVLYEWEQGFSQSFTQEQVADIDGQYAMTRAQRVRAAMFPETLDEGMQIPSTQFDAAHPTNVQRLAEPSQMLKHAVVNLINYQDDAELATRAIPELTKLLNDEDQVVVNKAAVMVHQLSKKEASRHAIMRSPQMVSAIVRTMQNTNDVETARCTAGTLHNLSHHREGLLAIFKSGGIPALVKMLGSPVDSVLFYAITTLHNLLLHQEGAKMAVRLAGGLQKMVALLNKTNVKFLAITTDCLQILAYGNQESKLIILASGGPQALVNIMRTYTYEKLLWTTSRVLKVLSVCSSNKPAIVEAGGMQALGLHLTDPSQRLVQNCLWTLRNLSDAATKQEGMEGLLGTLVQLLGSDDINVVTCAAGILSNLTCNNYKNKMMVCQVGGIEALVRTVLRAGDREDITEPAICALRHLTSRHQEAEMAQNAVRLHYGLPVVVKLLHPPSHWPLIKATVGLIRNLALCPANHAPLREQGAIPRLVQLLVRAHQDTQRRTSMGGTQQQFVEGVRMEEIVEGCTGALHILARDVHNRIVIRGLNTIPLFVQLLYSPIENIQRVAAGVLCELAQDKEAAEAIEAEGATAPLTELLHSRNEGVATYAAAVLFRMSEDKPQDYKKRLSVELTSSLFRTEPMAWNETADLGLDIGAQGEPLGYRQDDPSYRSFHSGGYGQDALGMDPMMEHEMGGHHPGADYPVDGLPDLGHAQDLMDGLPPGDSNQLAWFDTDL

Solubility in PBS = format: physicochemical
Summary of the method: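 PBS sample ultracentrifuged; supernatant run on HPLC vs. 50 μM peptide in DMSO standard. Solubility = (PBS peak area / DMSO peak area) × 50 uM.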

[2] = fluorescence polarization, read-out: beta-Catenin FP IC50
[3] = fluorescence polarization, beta-catenin, read-out: FP EC50

Row | Compound | CHI Log D (CHI Log D procedure; pH 7.4) | IC50 ([1]; read-out: FP EC50) [nM] | Solubility (Solubility in PBS) [µM] | IC50 [1, 2] [nM] | also measured
1 | CC[C@H](C)[C@@H]1NC(=O)[C@H](CC(=O)O)NC(=O)[C@]2(CC=CCCCC3(CCCC=CCCCCCC[C@@](C)(C(=O)N[C@@H](Cc4ccccc4)C(=O)N[C@@H](Cc4csc5ccccc45)C(=O)N[C@@H](CCC(N)=O)C(N)=O)NC(=O)[C@H](CCC(N)=O)NC(=O)[C@H](Cc4ccccc4)NC(=O)[C@H](C)NC(=O)[C@H](C)NC(=O)[C@H](CCC(=O)O)NC(=O)[C@H](CC(=O)O)NC3=O)NC1=O)CCCN2C(=O)Cc1ccccc1 (stereo partly drawn) [I-600, Bnc-PL3-Asp-Ile-B5-Asp-Glu-Ala-Ala-Phe-Gln-S8-Phe-BztA-Gln-NH2] | 2.694 | 796 | 47 (≈ 92.1 µg/mL) |  | IC50 ([1]; read-out: beta-Catenin FP IC50, fluorescence polarization): 796 nM
2 | CC(=O)N1CCC[C@]12CC=CCCCC1(CCCC=CCCCCCC[C@@](C)(C(=O)N[C@@H](Cc3ccncc3)C(=O)N[C@@H](Cc3csc4ccccc34)C(=O)N[C@@H](CCC(N)=O)C(N)=O)NC(=O)[C@H](C(C)C)NC(=O)[C@H](Cc3ccccc3)NC(=O)[C@H](C)NC(=O)[C@H](C)NC(=O)[C@H](CCC(=O)O)NC(=O)[C@H](CC(=O)O)NC1=O)NC(=O)[C@H](C)NC(=O)[C@H](CC(=O)O)NC2=O (stereo partly drawn) [I-385, Ac-PL3-Asp-Ala-B5-Asp-Glu-Ala-Ala-Phe-Val-S8-4pyrA-BztA-Gln-NH2] |  |  | 50 (≈ 90.7 µg/mL) | 3150 | chromatographic logD (CHI Log D procedure; pH 7.4, CHI Log D): 1.71
3 | CC(=O)N1CCC[C@]12CC=CCCCC1(CCCC=CCCCCCC[C@@](C)(C(=O)N[C@@H](Cc3ccccc3)C(=O)N[C@@H](Cc3csc4ccccc34)C(=O)N[C@@H](CCC(N)=O)C(N)=O)NC(=O)[C@H]([C@@H](C)O)NC(=O)[C@H](Cc3ccccc3)NC(=O)[C@H](C)NC(=O)[C@H](C)NC(=O)[C@H](CCC(=O)O)NC(=O)[C@H](CC(=O)O)NC1=O)NC(=O)[C@H](CC(C)C)NC(=O)[C@H](CC(=O)O)NC2=O (stereo partly drawn) [I-623, Ac-PL3-Asp-Leu-B5-Asp-Glu-Ala-Ala-Phe-Thr-S8-Phe-BztA-Gln-NH2] | 2.494 | 103 | 44 (≈ 81.7 µg/mL) | 103 | 
4 | CC(=O)N1CCC[C@]12CC=CCCCC1(CCCC=CCCCCCC[C@@](C)(C(=O)N[C@@H](Cc3ccccc3)C(=O)N[C@@H](Cc3csc4ccccc34)C(=O)N[C@@H](CCC(N)=O)C(N)=O)NC(=O)[C@H](CCC(N)=O)NC(=O)[C@H](Cc3ccccc3)NC(=O)[C@H](C)NC(=O)[C@H](C)NC(=O)[C@H](CCC(=O)O)NC(=O)[C@H](Cc3nn[nH]n3)NC1=O)NC(=O)[C@H](C)NC(=O)[C@H](CC(=O)O)NC2=O (stereo partly drawn) [I-415, Ac-PL3-Asp-Ala-B5-tetz-Glu-Ala-Ala-Phe-Gln-S8-Phe-BztA-Gln-NH2] | 2.125 | 2200 | 45 (≈ 83.9 µg/mL) | 2200 | 
5 | C[C@@H]1NC(=O)[C@H](C)NC(=O)[C@H](CC(=O)O)NC(=O)[C@H](CC(=O)O)NC(=O)C2(CCCC=CCCCOC(=O)N3CC[C@@](C(=O)N[C@@H](Cc4ccccc4)C(=O)N[C@@H](Cc4csc5ccccc45)C(=O)N[C@@H](Cc4c[nH]cn4)C(N)=O)(C3)NC(=O)[C@H](CC(N)=O)NC(=O)[C@H](Cc3ccccc3)NC1=O)CCCC=CC[C@]1(CCCN1C(=O)CN=[N+]=[N-])C(=O)N[C@@H](CC(=O)O)C(=O)N[C@@H](CC(C)(C)C)C(=O)N2 (stereo partly drawn) [I-1055, AzAc-PL3-Asp-Npg-B5-Asp-Asp-Ala-Ala-Phe-Asn-PyrS2-Phe-BztA-His-NH2] |  |  | 10 (≈ 19.6 µg/mL) |  | chromatographic logD (CHI Log D procedure; pH 7.4): 2.11; IC50 ([1]; FP EC50 (nM), fluorescence polarization, beta-catenin): 7 nM
6 | CC(=O)N1CCC[C@]12CC=CCCCC1(CCCC=CCCCOC(=O)N3CC[C@@](C(=O)N[C@@H](Cc4ccccc4Cl)C(=O)N[C@@H](Cc4csc5ccccc45)C(=O)N[C@@H](CCC(N)=O)C(N)=O)(C3)NC(=O)[C@H](CC(C)C)NC(=O)[C@H](Cc3ccccc3)NC(=O)[C@H](C)NC(=O)[C@H](C)NC(=O)[C@H](CC(=O)O)NC(=O)[C@H](CC(=O)O)NC1=O)NC(=O)[C@H](CC1CCCCC1)NC(=O)[C@H](CC(=O)O)NC2=O (stereo partly drawn) [I-1075, Ac-PL3-Asp-Cha-B5-Asp-Asp-Ala-Ala-Phe-Leu-PyrS2-2C1F-BztA-Gln-NH2] | 1.971 |  | 17 (≈ 33.5 µg/mL) |  | IC50 [1, 3]: 567 nM; IC50 ([1]; read-out: beta-Catenin FP IC50): 567 nM
7 | CC(=O)N1CCC[C@]12CC=CCCCC1(CCCC=CCCCCCC[C@@](C)(C(=O)N[C@@H](Cc3ccccc3)C(=O)N[C@@H](Cc3csc4ccccc34)C(=O)N[C@H](C(N)=O)[C@@H](C)O)NC(=O)[C@H](CCC(N)=O)NC(=O)[C@H](Cc3ccccc3)NC(=O)[C@H](C)NC(=O)[C@H](C)NC(=O)[C@H](CCC(=O)O)NC(=O)[C@H](CC(=O)O)NC1=O)NC(=O)[C@H](C)NC(=O)[C@H](CC(=O)O)NC2=O (stereo partly drawn) [I-508, Ac-PL3-Asp-Ala-B5-Asp-Glu-Ala-Ala-Phe-Gln-S8-Phe-BztA-Thr-NH2] | 2.126 | 73 | 50 (≈ 90.7 µg/mL) | 73 | 
8 | CC[C@H](C)[C@@H]1NC(=O)[C@H](CC(=O)O)NC(=O)[C@]2(CC=CCCCC3(CCCC=CCCCCCC[C@@](C)(C(=O)N[C@@H](Cc4ccsc4)C(=O)N[C@@H](Cc4csc5ccccc45)C(=O)N[C@@H](CCC(N)=O)C(N)=O)NC(=O)[C@H](CC(N)=O)NC(=O)[C@H](Cc4ccccc4)NC(=O)[C@H](C)NC(=O)[C@H](C)NC(=O)[C@H](CC(=O)O)NC(=O)[C@H](CC(=O)O)NC3=O)NC1=O)CCCN2C(C)=O (stereo partly drawn) [I-551, Ac-PL3-Asp-Ile-B5-Asp-Asp-Ala-Ala-Phe-Asn-S8-3Thi-BztA-Gln-NH2] | 2.278 | 45 | 50 (≈ 93.1 µg/mL) | 45 | 
9 | CC(=O)N1CCC[C@]12CC=CCCCC1(CCCC=CCCCOC(=O)N3CC[C@@](C(=O)N[C@@H](Cc4ccsc4)C(=O)N[C@@H](Cc4csc5ccccc45)C(=O)N[C@H](C(N)=O)[C@@H](C)O)(C3)NC(=O)[C@H](CC(N)=O)NC(=O)[C@H](Cc3ccccc3)NC(=O)[C@H](C)NC(=O)[C@H](C)NC(=O)[C@H](CN(CC(=O)O)CC(F)(F)F)NC(=O)[C@H](CC(=O)O)NC1=O)NC(=O)[C@H](CC(C)(C)C)NC(=O)[C@H](CC(=O)O)NC2=O (stereo partly drawn) [I-942, Ac-PL3-Asp-Npg-B5-Asp-TfeGA-Ala-Ala-Phe-Asn-PyrS2-3Thi-BztA-Thr-NH2] | 1.984 |  | 46 (≈ 92.1 µg/mL) |  | IC50 [1, 3]: 1280 nM; IC50 ([1]; read-out: beta-Catenin FP IC50): 1280 nM
10 | CC(=O)N1CCC[C@]12CC=CCCCC1(CCCC=CCCCOC(=O)N3CC[C@@](C(=O)N[C@@H](Cc4ccsc4)C(=O)N[C@@H](Cc4csc5ccccc45)C(=O)N[C@@H](CCC(N)=O)C(N)=O)(C3)NC(=O)[C@H](CCC(N)=O)NC(=O)[C@H](Cc3ccccc3)NC(=O)[C@H](C)NC(=O)[C@H](C)NC(=O)[C@H](CC(=O)O)NC(=O)[C@H](CC(=O)O)NC1=O)NC(=O)[C@H](CC(C)(C)C)NC(=O)[C@H](CC(=O)O)NC2=O (stereo partly drawn) [I-764, Ac-PL3-Asp-Npg-B5-Asp-Asp-Ala-Ala-Phe-Gln-PyrS2-3Thi-BztA-Gln-NH2] | 2.212 | 14 | 45 (≈ 86.9 µg/mL) |  | IC50 ([1]; read-out: beta-Catenin FP IC50): 14 nM
11 | CC(=O)N1CCC[C@]12CC=CCCCC1(CCCC=CCCCCCC[C@@](C)(C(=O)N[C@@H](Cc3ccccc3)C(=O)N[C@@H](Cc3csc4ccccc34)C(=O)N[C@@H](Cc3c[nH]cn3)C(N)=O)NC(=O)[C@H](CC(N)=O)NC(=O)[C@H](Cc3ccccc3)NC(=O)[C@H](C)NC(=O)[C@H](C)NC(=O)[C@H](CC(=O)O)NC(=O)[C@H](CC(=O)O)NC1=O)NC(=O)[C@H](C)NC(=O)[C@H](CC(=O)O)NC2=O (stereo partly drawn) [I-465, Ac-PL3-Asp-Ala-B5-Asp-Asp-Ala-Ala-Phe-Asn-S8-Phe-BztA-His-NH2] | 2.023 | 81 | 40 (≈ 72.9 µg/mL) | 81 | 
12 | CC[C@H](C)[C@@H]1NC(=O)[C@H](CC(=O)O)NC(=O)[C@]2(CC=CCCCC3(CCCC=CCCCCCC[C@@](C)(C(=O)N[C@@H](Cc4ccccc4)C(=O)N[C@@H](Cc4csc5ccccc45)C(N)=O)NC(=O)[C@H](CC(N)=O)NC(=O)[C@H](Cc4ccccc4)NC(=O)[C@H](C)NC(=O)[C@H](C)NC(=O)[C@H](CCC(=O)O)NC(=O)[C@H](CC(=O)O)NC3=O)NC1=O)CCCN2C(C)=O (stereo partly drawn) [I-714, Ac-PL3-Asp-Ile-B5-Asp-Glu-Ala-Ala-Phe-Asn-S8-Phe-BztA-NH2] | 2.698 | 131 | 43 (≈ 74.9 µg/mL) | 131 | 
13 | CC[C@H](C)[C@@H]1NC(=O)[C@H](CC(=O)O)NC(=O)[C@]2(CC=CCCCC3(CCCC=CCCCCCC[C@@](C)(C(=O)N[C@@H](Cc4ccccc4)C(=O)N[C@@H](Cc4csc5ccccc45)C(=O)N[C@@H](CCC(N)=O)C(N)=O)NC(=O)[C@H](CCC(N)=O)NC(=O)[C@H](Cc4ccccc4)NC(=O)[C@H](Cc4ccccc4)NC(=O)[C@H](C)NC(=O)[C@H](CCC(=O)O)NC(=O)[C@H](CC(=O)O)NC3=O)NC1=O)CCCN2C(C)=O (stereo partly drawn) [I-660, Ac-PL3-Asp-Ile-B5-Asp-Glu-Ala-Phe-Phe-Gln-S8-Phe-BztA-Gln-NH2] |  |  |  | 544 | chromatographic logD (CHI Log D procedure; pH 7.4, CHI Log D): 2.75; Solubility (Solubility in PBS; Solubility (uM)): 45 µM (≈ 88.2 µg/mL)
